Our source for the inhibition values is ChEMBL document CHEMBL5131382, “Facile and divergent optimization of chromazonarol enabled the identification of simplified drimane meroterpenoids as novel pharmaceutical leads” (Eur J Med Chem, 2022).

What all share (type): functional
One test concerns Sclerotinia sclerotiorum. The experiment in a line: Antifungal activity against Sclerotinia sclerotiorum at 150 uM.
The subject of the next test is Rhizoctonia solani. Nature of the test: Antifungal activity against Rhizoctonia solani at 150 uM.
The next test deals with Fusarium graminearum. The experiment in a line: Antifungal activity against Fusarium graminearum at 150 uM.
The next test concerns Pyricularia oryzae. Nature of the test: Antifungal activity against Pyricularia oryzae at 150 uM.
The next test deals with Phytophthora capsici. The experiment in a line: Antifungal activity against Phytophthora capsici at 150 uM.

As usually defined, the inhibition is the drop in the measured response relative to a control, in per cent. Turning to `CC1(C)CCC[C@]2(C)[C@H]3Cc4cc(O)ccc4O[C@]3(C)CC[C@@H]12`, the inhibition at 150 µM in the test with Sclerotinia sclerotiorum, in the test on Rhizoctonia solani, in the test with Fusarium graminearum, in the test on Pyricularia oryzae and with Phytophthora capsici was under 60% each time.

On to `CC1(C)CCC[C@]2(C)[C@H]3Cc4cc(OC(=O)c5ccccc5)ccc4O[C@]3(C)CC[C@@H]12`, for which the inhibition at 150 µM with Sclerotinia sclerotiorum, with Rhizoctonia solani, with Fusarium graminearum, in the test on Pyricularia oryzae and in the test with Phytophthora capsici was under 60% each time.

Consider `COc1ccc(C(=O)Oc2ccc3c(c2)C[C@@H]2[C@@]4(C)CCCC(C)(C)[C@@H]4CC[C@@]2(C)O3)cc1`, for which the inhibition at 150 µM in the test on Sclerotinia sclerotiorum, with Rhizoctonia solani, with Fusarium graminearum, in the test on Pyricularia oryzae and in the test with Phytophthora capsici was under 60% throughout.

As to `CC1(C)CCC[C@]2(C)[C@H]3Cc4cc(OC(=O)c5ccccn5)ccc4O[C@]3(C)CC[C@@H]12`, the inhibition at 150 µM in the test with Sclerotinia sclerotiorum, in the test with Rhizoctonia solani, in the test on Fusarium graminearum, in the test on Pyricularia oryzae and in the test with Phytophthora capsici was under 60% throughout.

Take `CC1(C)CCC[C@@]2(C)C1CC[C@@]1(C)Oc3ccc(-c4ccncc4)cc3C[C@@H]12` (stereo not given in full): the inhibition at 150 µM with Sclerotinia sclerotiorum, in the test on Rhizoctonia solani, with Fusarium graminearum, in the test with Pyricularia oryzae and in the test with Phytophthora capsici was under 60% in each case.

For the molecule `CC1(C)CCC[C@]2(C)[C@H]3Cc4cc(OC(=O)c5cccc(F)c5)ccc4O[C@]3(C)CC[C@@H]12`, the inhibition at 150 µM in the test on Sclerotinia sclerotiorum, with Rhizoctonia solani, in the test on Fusarium graminearum, in the test on Pyricularia oryzae and with Phytophthora capsici was under 60% in each case.

Turning to `CC1(C)CCC[C@]2(C)[C@H]3Cc4ccc(O)cc4O[C@]3(C)CC[C@@H]12`, the inhibition at 150 µM in the test with Sclerotinia sclerotiorum worked out at 47%; in the test with Rhizoctonia solani it was 72%; in the test on Fusarium graminearum it was 49%; with Pyricularia oryzae it was 50%; in the test with Phytophthora capsici, 53%.

On to `CC1(C)CCC[C@]2(C)[C@H]3Cc4cccc(O)c4O[C@]3(C)CC[C@@H]12`, for which the inhibition at 150 µM with Sclerotinia sclerotiorum is 22%; with Rhizoctonia solani, 53%; with Fusarium graminearum, 31%; in the test with Pyricularia oryzae, 21%; in the test on Phytophthora capsici, 40%.

Turning to `CC1(C)CCC[C@]2(C)[C@H]3Cc4cc(OC(=O)c5cccnc5)ccc4O[C@]3(C)CC[C@@H]12`, the inhibition at 150 µM in the test on Sclerotinia sclerotiorum, in the test on Rhizoctonia solani, in the test on Fusarium graminearum, in the test with Pyricularia oryzae and in the test on Phytophthora capsici was under 60% each time.

For `CC1(C)CCC[C@@]2(C)C1CC[C@@]1(C)Oc3ccc(OS(=O)(=O)C(F)(F)F)cc3C[C@@H]12` (stereo not given in full), the inhibition at 150 µM in the test with Sclerotinia sclerotiorum, in the test with Rhizoctonia solani, in the test on Fusarium graminearum, in the test with Pyricularia oryzae and with Phytophthora capsici was under 60% each time.

Consider `CC1(C)CCC[C@@]2(C)C1CC[C@@]1(C)Oc3ccc(OC(=O)Nc4ccc(F)cc4)cc3C[C@@H]12` (stereo not given in full), for which the inhibition at 150 µM in the test with Sclerotinia sclerotiorum, with Rhizoctonia solani, with Fusarium graminearum, with Pyricularia oryzae and with Phytophthora capsici was under 60% each time.

As for `CC1(C)CCC[C@]2(C)[C@H]3Cc4cc(OC(=O)c5ccc(F)cc5)ccc4O[C@]3(C)CC[C@@H]12`, the inhibition at 150 µM in the test with Sclerotinia sclerotiorum, in the test on Rhizoctonia solani, in the test with Fusarium graminearum, in the test with Pyricularia oryzae and in the test on Phytophthora capsici was under 60% throughout.

Take `CC1(C)CCC[C@@]2(C)C1CC[C@@]1(C)Oc3ccc(-c4cccnc4)cc3C[C@@H]12` (stereo not given in full): the inhibition at 150 µM in the test on Sclerotinia sclerotiorum, with Rhizoctonia solani, in the test on Fusarium graminearum, in the test with Pyricularia oryzae and in the test with Phytophthora capsici was under 60% each time.

In the case of `COc1ccc(-c2ccc3c(c2)C[C@H]2[C@@](C)(CCC4C(C)(C)CCC[C@@]42C)O3)cc1` (stereo not given in full), the inhibition at 150 µM with Sclerotinia sclerotiorum, in the test with Rhizoctonia solani, with Fusarium graminearum, in the test with Pyricularia oryzae and with Phytophthora capsici was under 60% throughout.

With `CC1(C)CCC[C@@]2(C)C1CC[C@@]1(C)Oc3ccc(O)c(Cl)c3C[C@@H]12` (stereo not given in full), the inhibition at 150 µM with Sclerotinia sclerotiorum, in the test on Rhizoctonia solani, in the test on Fusarium graminearum, in the test with Pyricularia oryzae and with Phytophthora capsici was under 60% in each case.

Consider `CC1(C)CCC[C@@]2(C)C1CC[C@@]1(C)Oc3ccc(-c4cnc5ccccc5c4)cc3C[C@@H]12` (stereo not given in full), for which the inhibition at 150 µM in the test on Sclerotinia sclerotiorum, in the test on Rhizoctonia solani, in the test with Fusarium graminearum, with Pyricularia oryzae and in the test with Phytophthora capsici was under 60% in each case.

Take `CC1(C)CCC[C@]2(C)[C@H]3Cc4c(O)cccc4O[C@]3(C)CC[C@@H]12`: the inhibition at 150 µM in the test with Sclerotinia sclerotiorum was 52%; in the test with Rhizoctonia solani, 75%; in the test with Fusarium graminearum, 43%; in the test with Pyricularia oryzae, 45%; with Phytophthora capsici, 54%.

In the case of `CC1(C)CCC[C@]2(C)[C@H]3Cc4cc(OC(=O)c5cccnc5Cl)ccc4O[C@]3(C)CC[C@@H]12`, the inhibition at 150 µM in the test with Sclerotinia sclerotiorum, with Rhizoctonia solani, in the test with Fusarium graminearum, in the test on Pyricularia oryzae and with Phytophthora capsici was under 60% throughout.

On to `CC1(C)CCC[C@]2(C)[C@@H](Cc3ccc(O)c(O)c3)[C@](C)(O)CC[C@@H]12`, for which the inhibition at 150 µM stood at 61% with Sclerotinia sclerotiorum; 49% in the test with Rhizoctonia solani; 38% in the test with Fusarium graminearum; 50% with Pyricularia oryzae; 72% in the test with Phytophthora capsici.

With `COc1cc2c(cc1OC)O[C@]1(C)CC[C@H]3C(C)(C)CCC[C@]3(C)[C@H]1C2`, the inhibition at 150 µM in the test on Sclerotinia sclerotiorum came out at 21%; in the test on Rhizoctonia solani, 13%; with Fusarium graminearum it was 29%; in the test with Pyricularia oryzae, 9%; in the test with Phytophthora capsici, 5%.

As for `CC1(C)CCC[C@@]2(C)C1CC[C@@]1(C)Oc3ccc(-c4ccsc4)cc3C[C@@H]12` (stereo not given in full), the inhibition at 150 µM with Sclerotinia sclerotiorum, in the test on Rhizoctonia solani, in the test with Fusarium graminearum, in the test on Pyricularia oryzae and with Phytophthora capsici was under 60% each time.

Take `CC1(C)CCC[C@]2(C)[C@H]3Cc4cc(O)cc(O)c4[C@]3(C)CC[C@@H]12`: the inhibition at 150 µM with Sclerotinia sclerotiorum came to 43%; in the test with Rhizoctonia solani, 68%; in the test on Fusarium graminearum, 60%; in the test on Pyricularia oryzae, 49%; in the test on Phytophthora capsici, 65%.

For `CC1(C)CCC[C@@]2(C)C1CC[C@@]1(C)Oc3ccc(-c4ccccc4)cc3C[C@@H]12` (stereo not given in full), the inhibition at 150 µM in the test with Sclerotinia sclerotiorum, with Rhizoctonia solani, with Fusarium graminearum, with Pyricularia oryzae and with Phytophthora capsici was under 60% each time.

For the molecule `COc1ccc(NC(=O)Oc2ccc3c(c2)C[C@H]2[C@@](C)(CCC4C(C)(C)CCC[C@@]42C)O3)cc1` (stereo not given in full), the inhibition at 150 µM with Sclerotinia sclerotiorum, in the test on Rhizoctonia solani, in the test with Fusarium graminearum, with Pyricularia oryzae and in the test on Phytophthora capsici was under 60% throughout.

With `CC1(C)CCC[C@]2(C)[C@H]3Cc4cc(OC(=O)c5ccc6ccccc6n5)ccc4O[C@]3(C)CC[C@@H]12`, the inhibition at 150 µM in the test with Sclerotinia sclerotiorum, in the test with Rhizoctonia solani, in the test with Fusarium graminearum, in the test on Pyricularia oryzae and in the test with Phytophthora capsici was under 60% each time.

Consider `CC1(C)CCC[C@]2(C)[C@@H](Cc3cc(O)cc(O)c3)[C@](C)(O)CC[C@@H]12`, for which the inhibition at 150 µM in the test with Sclerotinia sclerotiorum was 10%; in the test on Rhizoctonia solani, -10%; in the test on Fusarium graminearum it was 5%; with Pyricularia oryzae it was -5%; with Phytophthora capsici, 3%.

With `CC1(C)CCC[C@]2(C)[C@@H](Cc3cccc(O)c3O)[C@](C)(O)CC[C@@H]12`, the inhibition at 150 µM with Sclerotinia sclerotiorum turned out to be 42%; with Rhizoctonia solani, 42%; with Fusarium graminearum it was 36%; with Pyricularia oryzae, 24%; in the test on Phytophthora capsici it was 24%.

Turning to `Cc1ccc(O)c(C[C@@H]2[C@@]3(C)CCCC(C)(C)[C@@H]3CC[C@@]2(C)O)c1`, the inhibition at 150 µM was 8% with Sclerotinia sclerotiorum; -12% in the test on Rhizoctonia solani; -4% with Fusarium graminearum; -5% in the test with Pyricularia oryzae; 1% in the test with Phytophthora capsici.

Regarding `CC1(C)CCC[C@]2(C)C3=CC4=CC(=O)C(=O)C=C4O[C@]3(C)CC[C@@H]12`, the inhibition at 150 µM in the test on Sclerotinia sclerotiorum is 37%; in the test with Rhizoctonia solani it was 15%; with Fusarium graminearum it was 44%; with Pyricularia oryzae it was -2%; with Phytophthora capsici it was 18%.

Regarding `CC1(C)CCC[C@@]2(C)C1CC[C@@]1(C)Oc3ccc(-c4ccc(F)cc4)cc3C[C@@H]12` (stereo not given in full), the inhibition at 150 µM with Sclerotinia sclerotiorum, in the test with Rhizoctonia solani, in the test on Fusarium graminearum, in the test with Pyricularia oryzae and in the test with Phytophthora capsici was under 60% in each case.

For the molecule `C=CC(=O)Oc1ccc2c(c1)C[C@@H]1[C@@]3(C)CCCC(C)(C)[C@@H]3CC[C@@]1(C)O2`, the inhibition at 150 µM with Sclerotinia sclerotiorum, in the test with Rhizoctonia solani, with Fusarium graminearum, with Pyricularia oryzae and with Phytophthora capsici was under 60% in each case.
